Data reported in patent US8653263B2 (Janssen Pharmaceutica, priority 2009, dated 2014).

Molecular target: human orexin-2 receptor (Homo sapiens (Human), UniProt O43614)
Test: Human orexin 2 receptor radioligand binding ([3H]-EMPA competition)
Conditions: HEK293 cells stably expressing human orexin-2 receptor; [3H]-EMPA 5 nM final; apparent Ki=IC50/(1+C/Kd), Kd=2 nM; read-out: OR 2 Ki

Sequence of human orexin-2 receptor (O43614 whole entry): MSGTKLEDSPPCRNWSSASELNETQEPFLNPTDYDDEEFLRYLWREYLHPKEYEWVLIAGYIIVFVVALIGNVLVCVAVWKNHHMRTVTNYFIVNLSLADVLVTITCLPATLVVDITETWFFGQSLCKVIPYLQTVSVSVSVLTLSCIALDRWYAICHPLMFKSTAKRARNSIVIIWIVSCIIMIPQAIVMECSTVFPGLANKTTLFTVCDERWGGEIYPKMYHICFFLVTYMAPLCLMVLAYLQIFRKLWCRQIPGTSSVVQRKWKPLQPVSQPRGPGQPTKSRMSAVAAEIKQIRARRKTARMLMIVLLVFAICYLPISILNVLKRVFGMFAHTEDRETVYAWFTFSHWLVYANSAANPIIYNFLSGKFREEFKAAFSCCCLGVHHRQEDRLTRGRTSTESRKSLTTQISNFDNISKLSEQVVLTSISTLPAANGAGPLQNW

SMILES	Ki [nM]
CN(C)c1nc(N2CC3CN(C(=O)c4cc(F)ccc4-c4ncccn4)CC3C2)cc(C(F)(F)F)n1 (stereo not shown) [Example 109, 4-{5-[(5-Fluoro-2-pyrimidin-2-ylphenyl)carbonyl]hexahydropyrrolo[3,4-c]pyrrol-2(1H)-yl}-N,N-dimethyl-6-(trifluoromethyl)pyrimidin-2-amine]	46
CN(C)c1nc(N2CC3CN(C(=O)c4cc(F)ccc4-n4nccn4)CC3C2)cc(C(F)(F)F)n1 (stereo not shown) [Example 110, 4-[5-{[5-Fluoro-2-(2H-1,2,3-triazol-2-yl)phenyl]carbonyl}hexahydropyrrolo[3,4-c]pyrrol-2(1H)-yl]-N,N-dimethyl-6-(trifluoromethyl)pyrimidin-2-amine]	52
CN(C)c1nc(N2CC3CN(C(=O)c4ccc(F)cc4-n4nccn4)CC3C2)cc(C(F)(F)F)n1 (stereo not shown) [Example 111, [5-(2-Dimethylamino-6-trifluoromethyl-pyrimidin-4-yl)-hexahydro-pyrrolo[3,4-c]pyrrol-2-yl]-(4-fluoro-2-[1,2,3]triazol-2-yl-phenyl)-methanone]	28
Cc1ccc(-c2ncccn2)c(C(=O)N2CC3CN(c4cc(C)nc(C(F)(F)F)n4)CC3C2)c1 (stereo not shown) [Example 112, 2-[(5-Methyl-2-pyrimidin-2-ylphenyl)carbonyl]-5-[6-methyl-2-(trifluoromethyl)pyrimidin-4-yl]octahydropyrrolo[3,4-c]pyrrole]	95
O=C(c1cc(F)ccc1-c1ncccn1)N1CC2CN(c3nccc(-c4ccccc4)n3)CC2C1 (stereo not shown) [Example 113, 2-[(5-Fluoro-2-pyrimidin-2-ylphenyl)carbonyl]-5-(4-phenylpyrimidin-2-yl)octahydropyrrolo[3,4-c]pyrrole]	50
Cc1cc(N2CC3CN(C(=O)c4cc(F)ccc4-n4nccn4)CC3C2)nc(C(F)(F)F)n1 (stereo not shown) [Example 114, 2-{[5-Fluoro-2-(2H-1,2,3-triazol-2-yl)phenyl]carbonyl}-5-[6-methyl-2-(trifluoromethyl)pyrimidin-4-yl]octahydropyrrolo[3,4-c]pyrrole]	224
Cc1cc(N2CC3CN(C(=O)c4cc(F)ccc4-n4nccn4)CC3C2)nc(C)n1 (stereo not shown) [Example 115, [5-(2,6-Dimethyl-pyrimidin-4-yl)-hexahydro-pyrrolo[3,4-c]pyrrol-2-yl]-(5-fluoro-2-[1,2,3]triazol-2-yl-phenyl)-methanone]	5000
CN(C)c1nc(N2CC3CN(C(=O)c4c(F)cccc4-c4ncccn4)CC3C2)cc(C(F)(F)F)n1 (stereo not shown) [Example 116, 4-{5-[(2-Fluoro-6-pyrimidin-2-ylphenyl)carbonyl]hexahydropyrrolo[3,4-c]pyrrol-2(1H)-yl}-N,N-dimethyl-6-(trifluoromethyl)pyrimidin-2-amine]	22
Cc1cc(N2CC3CN(C(=O)c4c(F)cccc4-c4ncccn4)CC3C2)nc(C(F)(F)F)n1 (stereo not shown) [Example 117, 2-[(2-Fluoro-6-pyrimidin-2-ylphenyl)carbonyl]-5-[6-methyl-2-(trifluoromethyl)pyrimidin-4-yl]octahydropyrrolo[3,4-c]pyrrole]	24
Cc1cc(N(C)C)nc(N2CC3CN(C(=O)c4ccccc4-n4nccn4)CC3C2)n1 (stereo not shown) [Example 119, N,N,6-Trimethyl-2-[5-{[2-(2H-1,2,3-triazol-2-yl)phenyl]carbonyl}hexahydropyrrolo[3,4-c]pyrrol-2(1H)-yl]pyrimidin-4-amine]	51
Cc1cc(N2CC3CN(C(=O)c4ccccc4-n4nccn4)CC3C2)nc(N(C)C)n1 (stereo not shown) [Example 120, N,N,4-Trimethyl-6-[5-{[2-(2H-1,2,3-triazol-2-yl)phenyl]carbonyl}hexahydropyrrolo[3,4-c]pyrrol-2(1H)-yl]pyrimidin-2-amine]	71
CN(C)c1nc(N2CC3CN(C(=O)c4ccccc4-n4nccn4)CC3C2)cc(C(F)(F)F)n1 (stereo not shown) [Example 121, N,N-Dimethyl-4-[5-{[2-(2H-1,2,3-triazol-2-yl)phenyl]carbonyl}hexahydropyrrolo[3,4-c]pyrrol-2(1H)-yl]-6-(trifluoromethyl)pyrimidin-2-amine]	15
Cc1cc(N2CC3CN(C(=O)c4ccccc4-n4nccn4)CC3C2)nc(C)n1 (stereo not shown) [Example 122, 2-(2,6-Dimethylpyrimidin-4-yl)-5-{[2-(2H-1,2,3-triazol-2-yl)phenyl]carbonyl}octahydropyrrolo[3,4-c]pyrrole]	865
Cc1ccc(-n2nccn2)c(C(=O)N2CC3CN(c4nc(C)cnc4C)CC3C2)c1 (stereo not shown) [Example 123, [5-(3,6-Dimethyl-pyrazin-2-yl)-hexahydro-pyrrolo[3,4-c]pyrrol-2-yl]-(5-methyl-2-[1,2,3]triazol-2-yl-phenyl)-methanone]	44
Cc1cc(N(C)C)nc(N2CC3CN(C(=O)c4cc(F)ccc4-n4nccn4)CC3C2)n1 (stereo not shown) [Example 124, 2-[5-{[5-Fluoro-2-(2H-1,2,3-triazol-2-yl)phenyl]carbonyl}hexahydropyrrolo[3,4-c]pyrrol-2(1H)-yl]-N,N,6-trimethylpyrimidin-4-amine]	422
COc1ccc(N2CC3CN(C(=O)c4ccccc4-c4cccs4)CC3C2)nc1 (stereo not shown) [Example 125, 2-(5-Methoxypyridin-2-yl)-5-[(2-thiophen-2-ylphenyl)carbonyl]octahydropyrrolo[3,4-c]pyrrole]	901
CCOc1ccc2ccccc2c1C(=O)N1CC2CN(c3nccc(-c4ccccc4)n3)CC2C1 (stereo not shown) [Example 126, 2-[(2-Ethoxynaphthalen-1-yl)carbonyl]-5-(4-phenylpyrimidin-2-yl)octahydro pyrrolo[3,4-c]pyrrole]	95

SMILES	Ki [nM]
Cc1ccc(-n2nccn2)c(C(=O)N2CC3CN(c4nccc(-c5ccccc5)n4)CC3C2)c1 (stereo not shown) [Example 127, 2-{[5-Methyl-2-(2H-1,2,3-triazol-2-yl)phenyl]carbonyl}-5-(4-phenylpyrimidin-2-yl)octahydropyrrolo[3,4-c]pyrrole]	55
COc1cc(OC)nc(N2CC3CN(C(=O)c4cc(C)ccc4-n4nccn4)CC3C2)n1 (stereo not shown) [Example 129, 2-(4,6-Dimethoxypyrimidin-2-yl)-5-{[5-methyl-2-(2H-1,2,3-triazol-2-yl)phenyl]carbonyl}octahydropyrrolo[3,4-c]pyrrole]	111
O=C(c1ccccc1-n1nccn1)N1CC2CN(c3nccc(-c4ccccc4)n3)CC2C1 (stereo not shown) [Example 131, 2-(4-Phenylpyrimidin-2-yl)-5-{[2-(2H-1,2,3-triazol-2-yl)phenyl]carbonyl}octahydro pyrrolo[3,4-c]pyrrole]	75
Cc1cc(C)nc(N2CC3CN(C(=O)c4nc(C)sc4-c4ccccc4F)CC3C2)n1 (stereo not shown) [Example 132, 2-(4,6-Dimethylpyrimidin-2-yl)-5-{[5-(2-fluorophenyl)-2-methyl-1,3-thiazol-4-yl]carbonyl}octahydropyrrolo[3,4-c]pyrrole]	125
Cc1cccc(N2CC3CN(C(=O)c4ccccc4-c4cccs4)CC3C2)n1 (stereo not shown) [Example 134, 2-(6-Methylpyridin-2-yl)-5-[(2-thiophen-2-ylphenyl)carbonyl]octahydropyrrolo[3,4-c]pyrrole]	102
Cc1ccnc(N2CC3CN(C(=O)c4ccccc4-n4nccn4)CC3C2)n1 (stereo not shown) [Example 135, 2-(4-Methylpyrimidin-2-yl)-5-{[2-(2H-1,2,3-triazol-2-yl)phenyl]carbonyl}octahydro pyrrolo[3,4-c]pyrrole]	90
Cc1ccnc(N2CC3CN(C(=O)c4ccccc4-c4cccs4)CC3C2)c1 (stereo not shown) [Example 136, 2-(4-Methylpyridin-2-yl)-5-[(2-thiophen-2-ylphenyl)carbonyl]octahydropyrrolo[3,4-c]pyrrole]	104
COc1cccc(N2CC3CN(C(=O)c4ccccc4-c4cccs4)CC3C2)n1 (stereo not shown) [Example 137, 2-(6-Methoxypyridin-2-yl)-5-[(2-thiophen-2-ylphenyl)carbonyl]octahydro pyrrolo[3,4-c]pyrrole]	50
COc1cc(OC)nc(N2CC3CN(C(=O)c4ccccc4-c4cccs4)CC3C2)n1 (stereo not shown) [Example 138, 2-(4,6-Dimethoxypyrimidin-2-yl)-5-[(2-thiophen-2-ylphenyl)carbonyl]octahydro pyrrolo[3,4-c]pyrrole]	30
O=C(c1ccccc1-c1cccs1)N1CC2CN(c3nc4ccccc4o3)CC2C1 (stereo not shown) [Example 139, 2-{5-[(2-Thiophen-2-ylphenyl)carbonyl]hexahydropyrrolo[3,4-c]pyrrol-2(1H)-yl}-1,3-benzoxazole]	63
O=C(c1ccccc1-c1cccs1)N1CC2CN(c3ncccc3C(F)(F)F)CC2C1 (stereo not shown) [Example 140, 2-[(2-Thiophen-2-ylphenyl)carbonyl]-5-[3-(trifluoromethyl)pyridin-2-yl]octahydro pyrrolo[3,4-c]pyrrole]	119
O=C(c1ccccc1-c1nnc[nH]1)N1CC2CN(c3nccc(-c4ccccc4)n3)CC2C1 (stereo not shown) [Example 141, [5-(4-Phenyl-pyrimidin-2-yl)-hexahydro-pyrrolo[3,4-c]pyrrol-2-yl]-[2-(4H-[1,2,4]triazol-3-yl)-phenyl]-methanone]	1030
COc1cc(OC)nc(N2CC3CN(C(=O)c4nc(C)sc4-c4ccccc4F)CC3C2)n1 (stereo not shown) [Example 142, 2-(4,6-Dimethoxypyrimidin-2-yl)-5-{[5-(2-fluorophenyl)-2-methyl-1,3-thiazol-4-yl]carbonyl}octahydropyrrolo[3,4-c]pyrrole]	315
O=C(c1ccccc1-n1nccn1)N1CC2CN(c3nccc(-c4cccs4)n3)CC2C1 (stereo not shown) [Example 143, 2-(4-Thiophen-2-ylpyrimidin-2-yl)-5-{[2-(2H-1,2,3-triazol-2-yl)phenyl]carbonyl}octahydropyrrolo[3,4-c]pyrrole]	81
O=C(c1ccccc1-n1nccn1)N1CC2CN(c3nc4ccccc4o3)CC2C1 (stereo not shown) [Example 144, 2-[5-{[2-(2H-1,2,3-Triazol-2-yl)phenyl]carbonyl}hexahydropyrrolo[3,4-c]pyrrol-2(1H)-yl]-1,3-benzoxazole]	87
CCOc1ccc2ccccc2c1C(=O)N1CC2CN(c3cnc4ccccc4n3)CC2C1 (stereo not shown) [Example 145, 2-{5-[(2-Ethoxynaphthalen-1-yl)carbonyl]hexahydropyrrolo[3,4-c]pyrrol-2(1H)-yl}quinoxaline]	45
O=C(c1cc(F)ccc1-c1ncccn1)N1CC2CN(c3cnc4ccccc4n3)CC2C1 (stereo not shown) [Example 146, 2-{5-[(5-Fluoro-2-pyrimidin-2-ylphenyl)carbonyl]hexahydropyrrolo[3,4-c]pyrrol-2(1H)-yl}quinoxaline]	27
